Results from ChEMBL document CHEMBL1201862, “PubChem BioAssay data set” (2004).
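Assay format: 96-well plates, 48-hour exposure. GI50 marks 50% less growth.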 Calls of active or inactive are those of the source. Cut-off read from the data, not from the text of the source: active = GI50 up to about 1.1 µM and inactive = higher.

Legend:
Experiment in all cases: DTP human tumour cell line panel, 48 h
[1] = tested on: HCT-116
[2] = tested on: RPMI-8226
[3] = tested on: OVCAR-3
[4] = tested on: M14
[5] = tested on: U-251
[6] = tested on: SK-MEL-2
[7] = tested on: OVCAR-8
[8] = tested on: BT-549
[9] = tested on: Malme-3M
[10] = tested on: RXF 393
[11] = tested on: HOP-92
[12] = tested on: CAKI-1
[13] = tested on: DU-145
[14] = tested on: MDA-MB-435
[15] = tested on: T47D
[16] = tested on: SNB-75
[17] = tested on: HT-29
[18] = tested on: SK-MEL-5
[19] = tested on: PC-3
[20] = tested on: UACC-62
[21] = tested on: Hs-578T
[22] = tested on: K562
[23] = tested on: HL-60
[24] = tested on: UO-31
[25] = tested on: SNB-19
[26] = tested on: HOP-62
[27] = tested on: MOLT-4
[28] = tested on: NCI-H226
[29] = tested on: OVCAR-4
[30] = tested on: MDA-N
[31] = tested on: NCI-H460
[32] = tested on: KM12
[33] = tested on: A498
[34] = tested on: HCT-15
[35] = tested on: SK-OV-3
[36] = tested on: SN12C
[37] = tested on: OVCAR-5
[38] = tested on: SR
[39] = tested on: IGROV-1
[40] = tested on: CCRF-CEM
[41] = tested on: COLO 205
[42] = tested on: NCI-H23
[43] = tested on: NCI/ADR-RES
[44] = tested on: MDA-MB-231
[45] = tested on: MCF7
[46] = tested on: SK-MEL-28
[47] = tested on: NCI-H522
[48] = tested on: SF-295
[49] = tested on: 786-0
[50] = tested on: ACHN
[51] = tested on: UACC-257
[52] = tested on: HCC 2998
[53] = tested on: TK-10
[54] = tested on: LOX IMVI
[55] = tested on: SF-539
[56] = tested on: SF-268
[57] = tested on: SW-620
[58] = tested on: A549
[59] = tested on: EKVX

Measured: GI50

CO/C(=N/N1CC1C(F)(F)F)c1ccncc1 (centres undefined)
inactive: [1] > 100 µM | [2] > 100 µM | [3] > 100 µM | [4] > 100 µM | [5] > 100 µM | [6] > 100 µM | [7] > 100 µM | [8] 43.3 µM | [9] > 100 µM | [10] 45.1 µM | [11] > 100 µM | [12] > 100 µM | [13] > 100 µM | [14] > 100 µM | [15] > 100 µM | [16] > 100 µM | [17] > 100 µM | [18] > 100 µM | [19] > 10 µM | [20] > 100 µM | [21] > 100 µM | [22] > 100 µM | [23] > 100 µM | [24] 46.8 µM | [25] > 100 µM | [26] > 100 µM | [27] 30.8 µM | [28] > 100 µM | [29] > 100 µM | [30] > 100 µM | [31] > 100 µM | [32] > 100 µM | [33] > 100 µM | [35] 54.7 µM | [36] > 100 µM | [37] > 100 µM | [38] > 100 µM | [39] > 100 µM | [40] 88.1 µM | [41] > 100 µM | [42] > 100 µM | [43] > 100 µM | [44] > 100 µM | [45] > 100 µM | [46] > 100 µM | [47] > 100 µM | [48] > 100 µM
> 100 µM: [34]

O=C(NNC(=S)NCc1ccccc1)C12CC3CC(CC(C3)C1)C2
53.3 µM: [34]
inactive: [1] 34.5 µM | [2] 45.1 µM | [3] 54.6 µM | [49] 96.8 µM | [4] 74.3 µM | [5] 49.8 µM | [50] 54.7 µM | [51] 52.5 µM | [6] 99.1 µM | [7] > 100 µM | [8] > 100 µM | [52] 69.8 µM | [9] > 100 µM | [10] 89.1 µM | [13] 85.9 µM | [14] 87.3 µM | [15] 49.2 µM | [53] > 100 µM | [16] 49.4 µM | [17] 45.3 µM | [54] 35.4 µM | [19] 25.8 µM | [20] 66.7 µM | [21] > 100 µM | [22] 55.5 µM | [23] 22.4 µM | [24] 50.1 µM | [25] > 100 µM | [26] 75.2 µM | [27] 19.1 µM | [28] > 100 µM | [29] 76.6 µM | [30] 67.9 µM | [31] 36.3 µM | [32] 40.6 µM | [33] > 100 µM | [55] > 100 µM | [35] > 100 µM | [36] > 100 µM | [37] > 100 µM | [38] 9.33 µM | [39] > 100 µM | [40] 24.3 µM | [56] 58.9 µM | [41] 20.4 µM | [42] 74.6 µM | [43] 89.1 µM | [44] > 100 µM | [45] 61.4 µM | [57] 48 µM | [46] 67.6 µM | [47] > 100 µM | [48] 34.4 µM

Cc1ccc(-c2nc(-c3nccc4ccccc34)oc2-c2ccccc2)cc1
22.9 µM: [34]
inactive: [1] 20.2 µM | [2] 38.4 µM | [3] 56.1 µM | [49] 26.6 µM | [4] 24.9 µM | [5] 72.9 µM | [50] 92.9 µM | [51] 85.3 µM | [6] 51.9 µM | [7] 79.1 µM | [8] > 100 µM | [9] 96.4 µM | [10] 33.4 µM | [11] 30.3 µM | [12] 43.3 µM | [13] 63.2 µM | [14] 64.9 µM | [15] 68.2 µM | [53] 66.8 µM | [16] 31.6 µM | [17] 5.64 µM | [18] 28.1 µM | [54] 20.3 µM | [19] > 100 µM | [20] 46.6 µM | [21] 75 µM | [22] 55.1 µM | [23] > 100 µM | [24] 95.9 µM | [25] > 100 µM | [26] > 100 µM | [27] 25.2 µM | [28] > 100 µM | [29] > 100 µM | [30] 38.7 µM | [31] 26.7 µM | [32] 43.1 µM | [33] 30.5 µM | [55] 46 µM | [35] 68.9 µM | [36] 24.8 µM | [58] 40.6 µM | [59] 20.6 µM | [37] > 100 µM | [38] 25.8 µM | [39] > 100 µM | [40] 84.1 µM | [56] 73.5 µM | [41] 42.9 µM | [42] > 100 µM | [43] 98.2 µM | [44] > 100 µM | [45] 27.9 µM | [57] 88.3 µM | [46] > 100 µM | [47] 43 µM | [48] 68.4 µM

COC(=O)[C@]1(C)CCC[C@]2(C)[C@H]3CC[C@]4(C(C)C)OO[C@@H](O4)[C@]34O[C@@H]4C[C@H]21
inactive: [1] 1.63 µM | [2] 3.44 µM | [3] 1.8 µM | [49] 1.6 µM | [4] 4.8 µM | [5] 3.65 µM | [51] 14.9 µM | [6] 14.3 µM | [7] 3.61 µM | [8] 4.81 µM | [52] 2.15 µM | [9] 6.68 µM | [10] 4.28 µM | [11] 1.97 µM | [13] 1.64 µM | [14] 1.79 µM | [15] 1.76 µM | [53] 4.88 µM | [16] 3.87 µM | [17] 1.82 µM | [18] 1.69 µM | [19] 1.48 µM | [20] 5.3 µM | [21] 2.63 µM | [22] 1.99 µM | [23] 1.68 µM | [25] 10.8 µM | [26] 2.12 µM | [27] 1.21 µM | [28] 4.49 µM | [29] 1.85 µM | [30] 2.22 µM | [31] 1.88 µM | [32] 2.86 µM | [55] 10.6 µM | [35] 2.32 µM | [36] 3.02 µM | [58] 1.81 µM | [59] 1.87 µM | [37] 5.18 µM | [56] 2.24 µM | [41] 2.14 µM | [42] 6.56 µM | [43] 3.57 µM | [44] 4.11 µM | [45] 2.19 µM | [57] 3.1 µM | [46] 16.3 µM | [47] 1.43 µM | [48] 3.63 µM
2.16 µM: [34]
active: [50] 0.56 µM | [12] 0.384 µM | [54] 0.35 µM | [24] 0.641 µM | [38] 0.238 µM | [39] 0.157 µM | [40] 0.5 µM

CO[C@@H](c1ccccc1)[C@H](O)[C@@](O)(c1ccccc1)P(=O)(OC)OC
inactive: [1] > 100 µM | [2] > 100 µM | [3] > 100 µM | [49] > 100 µM | [4] > 100 µM | [5] > 100 µM | [50] > 100 µM | [51] > 100 µM | [6] > 100 µM | [7] > 100 µM | [8] > 100 µM | [9] 36.6 µM | [10] > 100 µM | [11] 29.8 µM | [12] 34.7 µM | [13] > 100 µM | [14] 44.4 µM | [15] > 100 µM | [53] > 100 µM | [16] > 100 µM | [17] > 100 µM | [18] > 100 µM | [54] > 100 µM | [19] > 100 µM | [20] > 100 µM | [21] > 100 µM | [22] > 100 µM | [23] > 100 µM | [24] > 100 µM | [25] > 100 µM | [27] > 100 µM | [28] > 100 µM | [30] > 100 µM | [31] > 100 µM | [32] 28.4 µM | [33] > 100 µM | [55] > 100 µM | [35] > 100 µM | [36] > 100 µM | [58] > 100 µM | [59] > 100 µM | [37] > 100 µM | [38] > 100 µM | [39] 48.2 µM | [40] > 100 µM | [56] > 100 µM | [41] > 100 µM | [42] > 100 µM | [43] > 100 µM | [44] > 100 µM | [45] > 100 µM | [57] > 100 µM | [46] > 100 µM | [47] 78.9 µM | [48] > 100 µM
> 100 µM: [34]
